Experimental data from patent publication US20240350447A1, “DELIVERY METHODS FOR TREATING BRAIN AND CENTRAL NERVOUS SYSTEM DISEASES” (JENIVISION INC., priority 2021, published 2024).

Assays:
[1] = Baseline endogenous levels of DHA, DHA-EE and JV-DE1; assay type: in vivo; conditions: undosed Bama minipigs
Method: Endogenous levels were measured in the plasma, cerebrospinal fluid, ocular tissues (retina, optic nerve, ocular muscles), and brain. The endogenous levels DHA are not attributable to NIODP administration of DHA, DHA-EE, or JV-DE1. The baseline data collected in Table 4 was taken from the same lot of pigs, from the same vendor, as the information collected in Tables 5-7.

[2] = JV-DE1 in cornea and retina after single eye drop administration; assay type: in vivo, New Zealand Rabbits; conditions: 120 μg/eye eye drops to the right eye
Description: NIODP may be more efficient than topical eye drops for corneal delivery to treat corneal disorders, such as dry disease. […] Accordingly, NIODP may be used to deliver other compounds (such as DHA) to the cornea to treat corneal diseases, such as dry eye.

[3] = Biodistribution of JV-DE1 after periorbital skin (NIODP) application to one eye; assay type: in vivo, Cynomolgus monkeys; conditions: 165.4 μg to OD via NIODP; for OS/OD retina ratio of JV-DE1: undosed/dosed retina
Method: An experiment was performed to determine the biodisposition of 4,5-dihydro-N-[4-[[4-(1-methylethoxy) phenyl]methyl] phenyl]-1H-imadazol-2-amine (JV-DE1) following topical application to the periorbital skin that surrounds the anterior portion of the globe was performed.
165.4 μg of JV-DE1, a synthesized chemical compound, was applied to the right eye (OD) of Cynomolgus monkeys via NIODP. The monkeys were restrained from rubbing their eyes for 2 hours post dose and closely monitored by experimenter(s) to prevent cross-contamination of the untreated eye, yet JV-DE1 was quickly found in the undosed upper eyelid (733.4 ng/g), retina (5.2 ng/g) and Vitreous humor (1.03 ng/mL) as early as 0.5-hour post dose. Throughout the 3, 6, and 24-hour post dose points, low levels of JV-DE1 was detected in the retina at 5.5 ˜ 45.5 ng/g of the dosed eye, and 1.4 ˜ 6.3 ng/g of the undosed eye. The ratio of JV-DE1 in undoseD retina vs. the dosed retina was below 25.5% at all post dose time points tested.

[4] = JV-DE1 distribution after single periorbital skin administration; assay type: in vivo, Bama minipigs
Method: In this example, 158.45 μg of 4,5-dihydro-N-[4-[[4-(1-methylethoxy) phenyl]methyl] phenyl]-1H-imadazol-2-amine (JV-DE1) was applied to the periorbital skin of a right eye of a Bama minipig. […] 1.37 ng/g of tissue and 1.35 ng/g of tissue of JV-DE1 was measured in the left and right halves of the brain, respectively. The average amount of JV-DE1 present in the brain 3 hours post-dosage was 1.36 ng/g.
Given that the average Bama pig brain weighs around 60 g, the amount of JV-DE1 delivered to the brain can be estimated to be […]. Therefore, 0.051% of the 158.45 μg of JV-DE1 administered to the periorbital skin was delivered to the brain, […] than the deliverability of DHA via NIODP. As a comparison, only about 0.025% of DHA that is orally administered is delivered to the brain or CNS.

[5] = 3 h, JV-DE1 158.45 μg to periorbital skin of right eye

For CC(C)Oc1ccc(Cc2ccc(NC3=NCCN3)cc2)cc1 [JV-DE1, 4,5-dihydro-N-[4-[[4-(1-methylethoxy)phenyl]methyl]phenyl]-1H-imadazol-2-amine], the “Baseline endogenous concentration in brain” value [1] was “BLQ”, the “Baseline endogenous concentration in cerebrospinal fluid” value [1] was “BLQ” and the “Baseline endogenous concentration in eye tissue homogenate including (Retina, optic nerve, ocular muscle)” value [1] was “BLQ”. The “Baseline endogenous concentration in plasma” value [1] was “BLQ”, the “JV-DE1 in cornea” value ([2]; OD (dosed eye), 0.5 h) was 12124.85 ng/g and the “JV-DE1 in retina” value ([2]; OD (dosed eye), 0.5 h) was 92.03 ng/g. The “JV-DE1 in cornea” value ([2]; OD (dosed eye), 2 h) was 5952.6 ng/g, the “JV-DE1 in retina” value ([2]; OD (dosed eye), 2 h) was 49.13 ng/g and the “JV-DE1 in cornea” value ([2]; OD (dosed eye), 6 h) was 5125.52 ng/g. For the same molecule, the “JV-DE1 in retina” value ([2]; OD (dosed eye), 6 h) was 58.87 ng/g, the “JV-DE1 in cornea” value ([2]; OD (dosed eye), 24 h) was 542.19 ng/g and the “JV-DE1 in retina” value ([2]; OD (dosed eye), 24 h) was 6.82 ng/g. The “JV-DE1 in cornea” value ([2]; OS (undosed eye), 0.5 h) was 78.35 ng/g, the “JV-DE1 in retina” value ([2]; OS (undosed eye), 0.5 h) was 7.35 ng/g and the “JV-DE1 in cornea” value ([2]; OS (undosed eye), 2 h) was 28.92 ng/g. The “JV-DE1 in retina” value ([2]; OS (undosed eye), 2 h) was 3.38 ng/g, the “JV-DE1 in cornea” value ([2]; OS (undosed eye), 6 h) was 67.82 ng/g and the “JV-DE1 in retina” value ([2]; OS (undosed eye), 6 h) was 1.42 ng/g. For the same molecule, the “JV-DE1 in cornea” value ([2]; OS (undosed eye), 24 h) was 11.03 ng/g, the “JV-DE1 in retina” value ([2]; OS (undosed eye), 24 h) was “BLQ” and the JV-DE1 in plasma ([3]; 0 h post dose) was “BLQ”. The JV-DE1 in plasma ([3]; 0.5 h post dose) was 0.131 ng/mL, the JV-DE1 in plasma ([3]; 3 h post dose) was 0.21 ng/mL and the JV-DE1 in plasma ([3]; 6 h post dose) was 0.26 ng/mL. For the same molecule, the JV-DE1 in plasma ([3]; 24 h post dose) was “BLQ”, the JV-DE1 in cornea ([3]; OD (dosed eye), 0.5 h) was 9299.3 ng/g and the JV-DE1 in retina ([3]; OD (dosed eye), 0.5 h) was 39.6 ng/g. For the same molecule, the “JV-DE1 in upper eyelid” value ([3]; OD (dosed eye), 0.5 h) was 26535.4 ng/g, the “JV-DE1 in vitreous humor” value ([3]; OD (dosed eye), 0.5 h) was 15.2 ng/mL and the “Retina/Upper eyelid ratio of JV-DE1” value ([3]; OD (dosed eye), 0.5 h) was 0.1%. The JV-DE1 in cornea ([3]; OD (dosed eye), 3 h) was 16688.7 ng/g, the JV-DE1 in retina ([3]; OD (dosed eye), 3 h) was 27.9 ng/g and the “JV-DE1 in upper eyelid” value ([3]; OD (dosed eye), 3 h) was 32454.7 ng/g. For the same molecule, the “JV-DE1 in vitreous humor” value ([3]; OD (dosed eye), 3 h) was 7.79 ng/mL, the “Retina/Upper eyelid ratio of JV-DE1” value ([3]; OD (dosed eye), 3 h) was 0.1% and the JV-DE1 in cornea ([3]; OD (dosed eye), 6 h) was 23929.5 ng/g. The JV-DE1 in retina ([3]; OD (dosed eye), 6 h) was 45.5 ng/g, the “JV-DE1 in upper eyelid” value ([3]; OD (dosed eye), 6 h) was 7945.6 ng/g and the “JV-DE1 in vitreous humor” value ([3]; OD (dosed eye), 6 h) was 3.9 ng/mL. For the same molecule, the “Retina/Upper eyelid ratio of JV-DE1” value ([3]; OD (dosed eye), 6 h) was 0.6%, the JV-DE1 in cornea ([3]; OD (dosed eye), 24 h) was 1621.3 ng/g and the JV-DE1 in retina ([3]; OD (dosed eye), 24 h) was 5.5 ng/g. The “JV-DE1 in upper eyelid” value ([3]; OD (dosed eye), 24 h) was 11597.8 ng/g, the “JV-DE1 in vitreous humor” value ([3]; OD (dosed eye), 24 h) was 18.97 ng/mL and the “Retina/Upper eyelid ratio of JV-DE1” value ([3]; OD (dosed eye), 24 h) was 0.0%. For the same molecule, the JV-DE1 in cornea ([3]; OS (undosed eye), 0.5 h) was 0 ng/g, the JV-DE1 in retina ([3]; OS (undosed eye), 0.5 h) was 5.2 ng/g and the “JV-DE1 in upper eyelid” value ([3]; OS (undosed eye), 0.5 h) was 733.4 ng/g. The “JV-DE1 in vitreous humor” value ([3]; OS (undosed eye), 0.5 h) was 1.03 ng/mL, the “Retina/Upper eyelid ratio of JV-DE1” value ([3]; OS (undosed eye), 0.5 h) was 0.7% and the JV-DE1 in cornea ([3]; OS (undosed eye), 3 h) was 0 ng/g. The JV-DE1 in retina ([3]; OS (undosed eye), 3 h) was 6.3 ng/g, the “JV-DE1 in upper eyelid” value ([3]; OS (undosed eye), 3 h) was 1637 ng/g and the “JV-DE1 in vitreous humor” value ([3]; OS (undosed eye), 3 h) was 1.85 ng/mL. For the same molecule, the “Retina/Upper eyelid ratio of JV-DE1” value ([3]; OS (undosed eye), 3 h) was 0.4%, the JV-DE1 in cornea ([3]; OS (undosed eye), 6 h) was 0 ng/g and the JV-DE1 in retina ([3]; OS (undosed eye), 6 h) was 4.8 ng/g. For the same molecule, the “JV-DE1 in upper eyelid” value ([3]; OS (undosed eye), 6 h) was 378.2 ng/g, the “JV-DE1 in vitreous humor” value ([3]; OS (undosed eye), 6 h) was 0.57 ng/mL and the “Retina/Upper eyelid ratio of JV-DE1” value ([3]; OS (undosed eye), 6 h) was 1.3%. For the same molecule, the JV-DE1 in cornea ([3]; OS (undosed eye), 24 h) was 0 ng/g, the JV-DE1 in retina ([3]; OS (undosed eye), 24 h) was 1.4 ng/g and the “JV-DE1 in upper eyelid” value ([3]; OS (undosed eye), 24 h) was 46.3 ng/g. For the same molecule, the “JV-DE1 in vitreous humor” value ([3]; OS (undosed eye), 24 h) was 0 ng/mL, the “Retina/Upper eyelid ratio of JV-DE1” value ([3]; OS (undosed eye), 24 h) was 3.0% and the “Ratio of JV-DE1 in undosed retina vs. dosed retina” value ([3]; all post dose time points tested) was “below 25.5%”. For the same molecule, the “OS/OD retina ratio of JV-DE1” value ([3]; 0.5 h) was 13.1%, the “OS/OD retina ratio of JV-DE1” value ([3]; 3 h) was 22.6% and the “OS/OD retina ratio of JV-DE1” value ([3]; 6 h) was 10.5%. For the same molecule, the “OS/OD retina ratio of JV-DE1” value ([3]; 24 h) was 25.5%, the “Drug Concentration in Plasma” value ([4]; 0 h, JV-DE1 158.45 μg to periorbital skin of right eye) was “BLQ” and the “Drug Concentration in Plasma” value ([4]; 1 h, JV-DE1 158.45 μg to periorbital skin of right eye) was “BLQ”. For the same molecule, the “Percentage of administered dose delivered to the brain” value ([4]; 3 h, JV-DE1 158.45 μg periorbital, whole brain estimate) was 0.051%, the “% of administered dose: Cerebrospinal fluid” value [4, 5] was 0% and the “% of administered dose: brain-left” value [4, 5] was 0.0518%. For the same molecule, the “% of administered dose: brain-right” value [4, 5] was 0.0513%, the “% of administered dose: inferior rectus muscle-left” value [4, 5] was 0.0061% and the “% of administered dose: inferior rectus muscle-right” value [4, 5] was 0.0170%. The “% of administered dose: lateral rectus muscle-left” value [4, 5] was 0.0063%, the “% of administered dose: lateral rectus muscle-right” value [4, 5] was 0.0175% and the “% of administered dose: medial rectus muscle-left” value [4, 5] was 0.0071%. The “% of administered dose: medial rectus muscle-right” value [4, 5] was 0.0260%, the “% of administered dose: optic nerve-left” value [4, 5] was 0.0006% and the “% of administered dose: optic nerve-right” value [4, 5] was 0.0047%. The “% of administered dose: retina-left” value [4, 5] was 0.0002%, the “% of administered dose: retina-right” value [4, 5] was 0.0003% and the “% of administered dose: superior rectus muscle-left” value [4, 5] was 0.0140%. The “% of administered dose: superior rectus muscle-right” value [4, 5] was 0.0237%, the “Average JV-DE1 present in the brain” value [4, 5] was 1.36 ng/g and the “Drug Concentration in Plasma” value [4, 5] was “BLQ”. The “Drug Concentration in Tissue: Cerebrospinal fluid” value [4, 5] was “BLQ”, the “Drug Concentration in Tissue: brain-left” value [4, 5] was 1.37 ng/g and the “Drug Concentration in Tissue: brain-right” value [4, 5] was 1.35 ng/g. For the same molecule, the “Drug Concentration in Tissue: inferior rectus muscle-left” value [4, 5] was 57.27 ng/g, the “Drug Concentration in Tissue: inferior rectus muscle-right” value [4, 5] was 58.71 ng/g and the “Drug Concentration in Tissue: lateral rectus muscle-left” value [4, 5] was 53.65 ng/g. The “Drug Concentration in Tissue: lateral rectus muscle-right” value [4, 5] was 43.50 ng/g, the “Drug Concentration in Tissue: medial rectus muscle-left” value [4, 5] was 43.67 ng/g and the “Drug Concentration in Tissue: medial rectus muscle-right” value [4, 5] was 65.54 ng/g. For the same molecule, the “Drug Concentration in Tissue: optic nerve-left” value [4, 5] was 11.94 ng/g, the “Drug Concentration in Tissue: optic nerve-right” value [4, 5] was 33.63 ng/g and the “Drug Concentration in Tissue: retina-left” value [4, 5] was 2.30 ng/g. For the same molecule, the “Drug Concentration in Tissue: retina-right” value [4, 5] was 2.70 ng/g, the “Drug Concentration in Tissue: superior rectus muscle-left” value [4, 5] was 85.83 ng/g and the “Drug Concentration in Tissue: superior rectus muscle-right” value [4, 5] was 88.37 ng/g. The “Amount of JV-DE1 delivered to the brain (estimated)” value ([4]; 3 h, brain weight around 60 g, JV-DE1 158.45 μg periorbital) was 80.6 ng.
